Laboratory results as given in patent US20230050653A1, “ROCK INHIBITOR AND PREPARATION METHOD THEREFOR AND USE THEREOF” (WUHAN LL SCIENCE AND TECHNOLOGY DEVELOPMENT CO., LTD., priority 2019, published 2023).

Assays:
ROCK1 kinase = molecular target: T1, ROCK1 kinase (Homo sapiens, UniProt Q13464); assay: In vitro evaluation of ROCK1 kinase selectivity (HTRF KinEASE-STK time-resolved fluorometric assay); assay type: biochemical
T1 construct: purchased Invitrogen
Method in brief: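 Recombinant ROCK1 (0.4 ng/μL final) preincubated with compound (1% DMSO) for 0.5 h at room temperature in buffer with 5 mM MgCl2 and 1 mM DTT. Reaction started with ATP and biotinylated STK-substrate 2 (3.53 μM and 1 μM final), run 2 h at room temperature. HTRF detection with STK antibody-Cryptate/streptavidin-XL665 after about 1 h.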

ROCK2 kinase = molecular target: T2, ROCK2 kinase (Homo sapiens, UniProt O75116); assay: In vitro evaluation of ROCK2 kinase activity (HTRF KinEASE-STK time-resolved fluorometric assay); assay type: biochemical
T2 construct: purchased Invitrogen PV3759
Method in brief: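 ROCK2 (0.4 ng/μL final) was preincubated with compound (1% DMSO) for 0.5 h at room temperature in kinase buffer with 5 mM MgCl2, 1 mM DTT. Reaction with ATP 6.739 μM and STK-substrate 2-biotin 1 μM ran 2 h at room temperature; HTRF read-out after ~1 h detection.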

[1] = In vivo pharmacokinetic study in mice; conditions: mouse, plasma
Excerpt: In Vivo Pharmacokinetic Study of Compounds Disclosed Herein in Mice SPF-grade mice (SPF (Beijing) Biotechnology Co., Ltd.) were fasted overnight (without water deprivation) after adaptive feeding, and then received the compound of the present disclosure by intragastrical administration and bolus injection at tail vein. After administration, plasma of mice was collected at specific time points, and the concentration of the compound in the plasma was detected by LC-MS/MS (AB SCIEX Qtrap4500). The PK parameters of the compounds were statistically analyzed and calculated (WinNonlin V5.2, Pharsight) to show the pharmacokinetic properties of the compounds in mice.

[2] = In vitro cytotoxicity assay in HepG2 cells, CCK-8 method; conditions: human
Procedure: In vitro cytotoxicity assay for the compounds disclosed herein was performed in HepG2 cells using the CCK-8 method. HepG2 cells (Beina Bio) in the logarithmic growth phase were collected, the concentration of cell suspension was adjusted, and then the cells were plated on a 96-well cell culture plate at 50,000 cells/well. The cells were then incubated overnight in a cell incubator (5%, 37° C.), and after 80-90% cell confluence was achieved, test compound at each concentration gradient or vehicle (DMSO) was added after medium change. The resulting mixture was incubated in the cell incubator (5%, 37° C.) for 48 h. After the treatment, the medium in the plate was discarded. The plate was washed twice with PBS, added with CCK-8 working solution (Beyotime) at 100 μL per well, and then incubated at 37° C. for 1.5 h in the dark. Absorbance at OD450 nm was measured for each well on a microplate reader, and CC50 value of each compound was analyzed and calculated.

T2 sequence (O75116 whole entry): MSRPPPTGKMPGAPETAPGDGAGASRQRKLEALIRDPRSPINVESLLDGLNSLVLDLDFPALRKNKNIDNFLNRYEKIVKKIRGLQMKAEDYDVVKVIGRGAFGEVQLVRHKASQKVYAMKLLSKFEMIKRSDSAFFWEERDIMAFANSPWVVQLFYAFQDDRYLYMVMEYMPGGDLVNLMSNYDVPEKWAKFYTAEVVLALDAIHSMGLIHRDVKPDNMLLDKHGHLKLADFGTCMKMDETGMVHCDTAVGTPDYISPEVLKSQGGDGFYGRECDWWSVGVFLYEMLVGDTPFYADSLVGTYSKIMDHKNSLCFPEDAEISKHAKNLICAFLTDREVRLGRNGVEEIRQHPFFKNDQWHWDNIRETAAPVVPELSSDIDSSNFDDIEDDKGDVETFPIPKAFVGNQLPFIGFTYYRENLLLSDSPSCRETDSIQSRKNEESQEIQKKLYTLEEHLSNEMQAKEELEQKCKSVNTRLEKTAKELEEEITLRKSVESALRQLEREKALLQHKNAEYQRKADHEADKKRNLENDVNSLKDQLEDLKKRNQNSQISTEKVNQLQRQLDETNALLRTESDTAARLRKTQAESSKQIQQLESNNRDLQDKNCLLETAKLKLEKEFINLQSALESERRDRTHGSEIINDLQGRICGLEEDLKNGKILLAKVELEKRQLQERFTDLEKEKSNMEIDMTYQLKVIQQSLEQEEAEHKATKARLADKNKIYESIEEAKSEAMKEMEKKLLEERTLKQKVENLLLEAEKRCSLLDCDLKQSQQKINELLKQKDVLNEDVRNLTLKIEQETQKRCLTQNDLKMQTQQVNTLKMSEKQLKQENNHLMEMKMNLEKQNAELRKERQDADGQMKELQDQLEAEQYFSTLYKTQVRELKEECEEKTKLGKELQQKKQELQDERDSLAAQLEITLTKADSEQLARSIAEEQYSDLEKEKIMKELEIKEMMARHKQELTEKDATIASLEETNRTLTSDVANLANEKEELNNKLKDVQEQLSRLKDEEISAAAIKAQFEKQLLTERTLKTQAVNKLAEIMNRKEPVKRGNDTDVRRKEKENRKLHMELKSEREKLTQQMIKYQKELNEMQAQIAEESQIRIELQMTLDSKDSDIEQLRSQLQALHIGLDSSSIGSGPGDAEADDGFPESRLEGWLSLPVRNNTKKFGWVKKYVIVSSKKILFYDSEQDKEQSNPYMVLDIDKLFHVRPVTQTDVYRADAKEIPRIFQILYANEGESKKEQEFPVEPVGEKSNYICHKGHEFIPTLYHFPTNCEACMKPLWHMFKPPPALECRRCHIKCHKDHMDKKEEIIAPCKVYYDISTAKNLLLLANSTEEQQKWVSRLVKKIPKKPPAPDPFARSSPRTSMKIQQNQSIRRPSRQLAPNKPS
T1 sequence (Q13464 whole entry): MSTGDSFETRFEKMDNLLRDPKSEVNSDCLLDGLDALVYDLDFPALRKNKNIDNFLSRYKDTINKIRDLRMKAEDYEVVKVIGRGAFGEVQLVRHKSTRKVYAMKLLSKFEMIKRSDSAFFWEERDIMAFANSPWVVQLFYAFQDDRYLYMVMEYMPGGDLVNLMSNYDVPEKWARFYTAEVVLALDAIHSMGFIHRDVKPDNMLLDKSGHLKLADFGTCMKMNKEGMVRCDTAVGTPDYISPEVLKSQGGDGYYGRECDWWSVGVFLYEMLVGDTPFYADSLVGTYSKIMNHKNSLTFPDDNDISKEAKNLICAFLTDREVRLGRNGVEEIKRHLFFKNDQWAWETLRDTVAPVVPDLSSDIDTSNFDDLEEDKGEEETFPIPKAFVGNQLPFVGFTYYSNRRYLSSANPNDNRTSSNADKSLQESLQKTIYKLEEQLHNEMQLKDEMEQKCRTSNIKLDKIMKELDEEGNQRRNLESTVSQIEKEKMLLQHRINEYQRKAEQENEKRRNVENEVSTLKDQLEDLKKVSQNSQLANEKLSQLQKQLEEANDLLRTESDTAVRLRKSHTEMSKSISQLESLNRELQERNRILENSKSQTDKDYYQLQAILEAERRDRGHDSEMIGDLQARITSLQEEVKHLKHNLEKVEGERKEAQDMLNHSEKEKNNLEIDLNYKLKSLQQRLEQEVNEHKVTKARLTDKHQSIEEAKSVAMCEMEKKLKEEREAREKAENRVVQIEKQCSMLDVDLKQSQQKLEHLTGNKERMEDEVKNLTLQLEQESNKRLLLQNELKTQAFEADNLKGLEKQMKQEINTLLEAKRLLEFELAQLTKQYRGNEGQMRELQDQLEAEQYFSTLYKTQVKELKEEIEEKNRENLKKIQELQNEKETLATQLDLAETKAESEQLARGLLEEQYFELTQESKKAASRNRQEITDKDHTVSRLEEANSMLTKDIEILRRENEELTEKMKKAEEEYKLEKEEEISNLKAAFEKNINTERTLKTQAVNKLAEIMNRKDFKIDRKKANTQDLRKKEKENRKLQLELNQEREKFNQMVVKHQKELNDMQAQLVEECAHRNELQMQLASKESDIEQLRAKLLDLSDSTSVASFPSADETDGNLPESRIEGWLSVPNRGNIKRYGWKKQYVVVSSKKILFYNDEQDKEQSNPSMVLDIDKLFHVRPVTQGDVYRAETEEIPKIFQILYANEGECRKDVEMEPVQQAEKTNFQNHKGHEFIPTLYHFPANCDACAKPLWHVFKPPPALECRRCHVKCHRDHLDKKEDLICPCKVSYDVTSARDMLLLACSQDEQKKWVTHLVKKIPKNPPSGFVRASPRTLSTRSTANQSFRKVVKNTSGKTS

| IC50 (ROCK1 kinase) [µM] | IC50 (ROCK2 kinase) [µM] | Compound | CC50 at 48 h [2] [µM] | also measured |
| --- | --- | --- | --- | --- |
| 0.05 to 0.5 | ≤ 0.05 | COc1cc(F)cc(CNC(=O)N2CCCc3cc(-c4cn[nH]c4)ccc32)c1 [Compound T204, N-(3-fluoro-5-methoxybenzyl)-6-(1H-pyrazol-4-yl)-3,4-dihydroquinoline-1(2H)-carboxamide] | > 50 | – |
| ≤ 0.05 | ≤ 0.05 | COc1cc(F)cc(CNC(=O)c2ncn3cc(-c4cn[nH]c4)ccc23)c1 [Compound T238, N-(3-fluoro-5-methoxybenzyl)-6-(1H-pyrazol-4-yl)imidazo[1,5-a]pyridine-1-carboxamide] | – | bioavailability ([1]; 3.4 mg/kg Po vs Iv): 84.6%; AUC(0-t) ([1]; Iv, 3.4 mg/kg): 10.5 µg·h/mL; Cmax ([1]; Iv, 3.4 mg/kg): 4.94 µg/mL; AUC(0-t) ([1]; Po, 3.4 mg/kg): 8.88 µg·h/mL; Cmax ([1]; Po, 3.4 mg/kg): 2.13 µg/mL |
| ≤ 0.05 | ≤ 0.05 | COc1cccc([C@@H](CO)NC(=O)N2CCc3cc(-c4cn[nH]c4)c(F)cc32)c1 [Compound T346] | 45 | – |
| 0.05 to 0.5 | ≤ 0.05 | CCOc1cc(F)cc([C@@H](CO)NC(=O)N2CCc3cc(-c4cn[nH]c4)c(F)cc32)c1 [Compound T390, (S′)-N-(1-(3-ethoxy-5-fluorophenyl)-2-hydroxyethyl)-6-fluoro-5-(1N-pyrazol-4-yl)indoline-1-carboxamide] | – | – |

The remaining lines, values behind:

| Compound | IC50 (ROCK1 kinase) [µM] | IC50 (ROCK2 kinase) [µM] | CC50 at 48 h [2] [µM] | also measured |
| --- | --- | --- | --- | --- |
| COc1cc(F)cc(CNC(=O)N2CCc3cc(-c4cn[nH]c4)ccc3C2)c1 [Compound T201, N-(3-fluoro-5-methoxybenzyl)-6-(1H-pyrazol-4-yl)-3,4-dihydroisoquinoline-2(1H)-carboxamide] | 0.5 to 5 | 0.05 to 0.5 | – | bioavailability ([1]; 3 mg/kg Po vs Iv): 42.4%; AUC(0-t) ([1]; Iv, 3 mg/kg): 0.413 µg·h/mL; Cmax ([1]; Iv, 3 mg/kg): 0.704 µg/mL; AUC(0-t) ([1]; Po, 3 mg/kg): 0.175 µg·h/mL; Cmax ([1]; Po, 3 mg/kg): 0.0955 µg/mL |
| COc1cc(F)cc(CNC(=O)N2CCOc3cc(-c4cn[nH]c4)ccc32)c1 [Compound T205, N-(3-fluoro-5-methoxybenzyl)-7-(1H-pyrazol-4-yl)-2H-benzo[b][1,4]oxazine-4(3H)-carboxamide] | 0.05 to 0.5 | ≤ 0.05 | > 50 | – |
| COc1cc(F)cc(CNC(=O)c2ncn3cc(-c4cn[nH]c4F)ccc23)c1 [Compound T355, 6-(5-fluoro-1H-pyrazol-4-yl)-N-(3-fluoro-5-methoxybenzyl)imidazo[1,5-a]pyridine-1-carboxamide] | ≤ 0.05 | ≤ 0.05 | > 100 | – |
| O=C(NC1CCCC1)c1cccc([C@H](CO)NC(=O)N2CCc3cc(-c4cn[nH]c4)c(F)cc32)c1 [Compound T356-R, (R)-N-(1-(3-(cyclopentylcarbamoyl)phenyl)-2-hydroxyethyl)-6-fluoro-5-(1H-pyrazol-4-yl)indoline-1-carboxamide] | 0.05 to 0.5 | 0.05 to 0.5 | > 200 | – |
| COc1cccc(CNC(=O)c2ncn3cc(-c4cn[nH]c4)ccc23)c1 [Compound T361, N-(3-methoxybenzyl)-6-(1H-pyrazol-4-yl)imidazo[1,5-a]pyridine-1-carboxamide] | 0.05 to 0.5 | ≤ 0.05 | > 100 | – |
| O=C(NCc1cccc(OCC2CC2)c1)N1CCc2cc(-c3c[nH]nc3F)c(F)cc21 [Compound T380, N-(3-(cyclopropylmethoxy)benzyl)-6-fluoro-5-(3-fluoro-1H-pyrazol-4-yl)indoline-1-carboxamide] | 0.05 to 0.5 | ≤ 0.05 | 35.3 | – |
| COc1cc(CNC(=O)N2CCc3cc(-c4cn[nH]c4F)c(F)cc32)ccc1F [Compound T384, 6-fluoro-5-(5-fluoro-1H-pyrazol-4-yl)-N-(4-fluoro-3-methoxybenzyl)indoline-1-carboxamide] | ≤ 0.05 | ≤ 0.05 | > 100 | – |
| COc1cc(F)cc(CNC(=O)N2CCc3cc(-c4c[nH]nc4N)c(F)cc32)c1 [Compound T385, 5-(3-amino-1H-pyrazol-4-yl)-6-fluoro-N-(3-fluoro-5-methoxybenzyl)indoline-1-carboxamide] | 0.05 to 0.5 | ≤ 0.05 | > 100 | – |
